Activity calls are given as the source filed them. The calls are words filed in the database; no cut-off is given here.
Key:
[1] = biological target: T1, Peroxisome proliferator-activated receptor gamma (Homo sapiens) (UniProt P37231); assay: Agonist activity at human PPARgamma expressed in U2OS cells coexpressing human RXR assessed as luciferase activity at 10 uM after 24 hrs by transactivation assay relative to control; type: cell-based
T1 sequence (whole entry): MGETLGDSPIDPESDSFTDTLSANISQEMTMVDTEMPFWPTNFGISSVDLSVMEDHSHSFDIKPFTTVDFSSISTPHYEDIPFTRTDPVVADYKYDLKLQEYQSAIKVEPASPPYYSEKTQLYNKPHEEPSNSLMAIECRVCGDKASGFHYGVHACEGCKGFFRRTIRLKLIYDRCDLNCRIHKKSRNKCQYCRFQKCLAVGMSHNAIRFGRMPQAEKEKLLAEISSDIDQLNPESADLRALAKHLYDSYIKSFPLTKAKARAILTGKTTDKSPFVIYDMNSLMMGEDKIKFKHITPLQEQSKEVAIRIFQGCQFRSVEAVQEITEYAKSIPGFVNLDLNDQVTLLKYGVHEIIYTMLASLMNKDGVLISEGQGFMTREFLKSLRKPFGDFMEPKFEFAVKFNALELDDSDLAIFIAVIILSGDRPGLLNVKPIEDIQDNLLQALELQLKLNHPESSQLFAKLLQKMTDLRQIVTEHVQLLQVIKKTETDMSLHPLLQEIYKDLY

HepG2 [2] = assay: Induction of glucose consumption in human HepG2 cells at 10^-5 M after 24 hrs by glucose oxidase method (reference value: 2 +/- 0.09 mM); type: functional
HepG2 [3] = assay: Induction of glucose consumption in human HepG2 cells at 10^-5 M after 24 hrs by glucose oxidase method relative to control; type: functional
HepG2 [4] = assay: Induction of glucose consumption in human HepG2 cells at 10^-6 M after 24 hrs by glucose oxidase method relative to control; type: functional
Mus musculus [5] = assay: Hypoglycemic effect in eight week old female db/db mouse assessed as reduction in fasting triglyceride level at 30 mg/kg, intragastric for 3 weeks; type: functional, organism-based; design: dose 30 mg/kg
Mus musculus [6] = assay: Hypoglycemic effect in eight week old female db/db mouse assessed as reduction in blood glucose level at 30 mg/kg, intragastric for 3 weeks; type: functional; details: po, 504 h
Mus musculus [7] = assay: Hypoglycemic effect in eight week old female db/db mouse assessed as reduction in blood glucose level at 30 mg/kg, intragastric for 2 weeks; type: functional; details: po, 336 h
HepG2 [8] = assay: Induction of glucose consumption in human HepG2 cells at 10^-7 M after 24 hrs by glucose oxidase method relative to control; type: functional
Mus musculus [9] = assay: Toxicity in eight week old female db/db mouse assessed as body weight increase at 30 mg/kg, intragastric for 3 weeks; type: organism-based; design: dose 30 mg/kg, route intragastric; details: in vivo, po, 504 h
Mus musculus [10] = assay: Hypoglycemic effect in eight week old female db/db mouse assessed as reduction in blood glucose level at 30 mg/kg, intragastric for 1 week; type: functional; details: po, 168 h
Mus musculus [11] = assay: Reduction in total cholesterol level in eight week old female db/db mouse at 30 mg/kg, intragastric for 3 weeks; type: functional, organism-based; design: dose 30 mg/kg
Mus musculus [12] = assay: Toxicity in eight week old female db/db mouse assessed as effect on body weight at 30 mg/kg, intragastric for 3 weeks; type: organism-based; design: dose 30 mg/kg, route intragastric; details: in vivo, po, 504 h
HepG2 [13] = assay: Induction of glucose consumption in human HepG2 cells at 10^-3 M after 24 hrs by glucose oxidase method (reference value: 2 +/- 0.09 mM); type: functional
HepG2 [14] = assay: Induction of glucose consumption in human HepG2 cells at 10^-3 M after 24 hrs by glucose oxidase method relative to control; type: functional

Structure (SMILES) | Ratio [1] | Activity (HepG2 [2]) | Activity (HepG2 [3]) | further results
C[C@@H]1[C@@H](CC(=O)O)c2cc(OCc3ccccc3)ccc2N1C(=O)c1ccncc1 | 1.73 | 2.46 mM | 22.6% | Activity (HepG2 [4]): -4.6%; inhibition (Mus musculus [5]): Active; inhibition in vivo at 30 mg/kg (Mus musculus [6]): 14.9%; inhibition in vivo at 30 mg/kg (Mus musculus [7]): > 30%; Activity (HepG2 [8]): -4.1%
CCc1ccc(CCOc2ccc(CC3SC(=O)NC3=O)cc2)nc1 (stereo not drawn) [PIOGLITAZONE] |  |  |  | Activity (Mus musculus [9]): 16.3%; inhibition (Mus musculus [5]): Active; inhibition in vivo at 30 mg/kg (Mus musculus [6]): 30.6%; inhibition in vivo at 30 mg/kg (Mus musculus [7]): > 30%; inhibition in vivo at 30 mg/kg (Mus musculus [10]): > 25%
Cc1c(CCCC(=O)O)c2cc(OCc3ccccc3)ccc2n1S(=O)(=O)c1ccc(Cl)cc1 | 2.44 | 2.78 mM | 38.9% | Activity (HepG2 [4]): 15.3%; inhibition (Mus musculus [11]): Active; inhibition in vivo at 30 mg/kg (Mus musculus [6]): 13.9%; inhibition in vivo at 30 mg/kg (Mus musculus [10]): > 25%; Activity (HepG2 [8]): 18.2%; Activity (Mus musculus [12]): Non-toxic
CN(C)C(=N)NC(=N)N [METFORMIN] |  |  |  | Activity (HepG2 [13]): 3.03 mM; Activity (HepG2 [14]): 51%
C[C@@H]1[C@@H](CC(=O)O)c2cc(OCc3ccccc3)ccc2N1S(=O)(=O)c1ccc(Cl)cc1 | 2.37 | 2.33 mM | 16.3% | 
Cc1c(CCCC(=O)O)c2cc(OCc3ccccc3)ccc2n1C(=O)c1ccc(Cl)cc1 | 3.28 | 2.55 mM | 27.3% | Activity (HepG2 [4]): 8.3%; Activity (HepG2 [8]): 12.5%; Activity (Mus musculus [12]): Non-toxic
C[C@@H]1[C@@H](CC(=O)O)c2cc(OCc3ccccc3)ccc2N1C(=O)Cc1ccc(Cl)cc1 | 2.2 | 2.35 mM | 17% | 
C[C@@H]1[C@@H](CC(=O)O)c2cc(OCc3ccccc3)ccc2N1C(=O)c1ccc(C#N)cc1 | 2.05 | 2.26 mM | 12.6% | 
C[C@@H]1[C@@H](CC(=O)O)c2cc(OCc3ccccc3)ccc2N1C(=O)c1ccccc1 | 2.05 | 2.14 mM | 6.9% | 
C[C@@H]1[C@@H](CC(=O)O)c2cc(OCc3ccccc3)ccc2N1C(=O)c1ccc(C(F)(F)F)cc1 | 1.72 | 2.2 mM | 9.8% | 
C[C@@H]1[C@@H](CC(=O)O)c2cc(OCc3ccccc3)ccc2N1C(=O)C12CC3CC(CC(C3)C1)C2 | 1.63 | 2.1 mM | 4.8% | Activity (Mus musculus [12]): Non-toxic
C[C@@H]1[C@@H](CC(=O)O)c2cc(OCc3ccncc3)ccc2N1C(=O)c1ccc(Cl)cc1 | 1.49 | 1.7 mM | -15.4% | 
Cc1c(CCC(=O)O)c2cc(OCc3ccccc3)ccc2n1C(=O)c1ccc(Cl)cc1 | 2.72 | 2.53 mM | 26.1% | Activity (HepG2 [4]): 14.1%; Activity (HepG2 [8]): 19.2%; Activity (Mus musculus [12]): Non-toxic
CN(CCOc1ccc(CC2SC(=O)NC2=O)cc1)c1ccccn1 (stereo not drawn) [ROSIGLITAZONE] |  | 2.53 mM | 26.5% | 
Cc1c(CCC(=O)O)c2cc(OCc3ccccc3)ccc2n1S(=O)(=O)c1ccc(Cl)cc1 | 2.48 | 2.45 mM | 22.1% | Activity (HepG2 [4]): 10.5%; Activity (HepG2 [8]): 17.7%
Cc1c(CC(=O)O)c2cc(OCc3ccccc3)ccc2n1C(=O)c1ccc(Cl)cc1 | 3.82 | 2.44 mM | 21.9% | inhibition in vivo at 30 mg/kg (Mus musculus [6]): 13.5%; inhibition in vivo at 30 mg/kg (Mus musculus [7]): > 30%; inhibition in vivo at 30 mg/kg (Mus musculus [10]): > 25%
COc1ccc(CC(=O)N2c3ccc(OCc4ccccc4)cc3[C@H](CC(=O)O)[C@H]2C)cc1OC | 2 | 2.2 mM | 9.9% | 

The next lines start with results.

Ratio [1] | Structure (SMILES) | Activity (HepG2 [2]) | Activity (HepG2 [3]) | further results
2.14 | COc1ccc(C(=O)N2c3ccc(OCc4ccccc4)cc3[C@H](CC(=O)O)[C@H]2C)cc1 | 2.22 mM | 10.8% | 
2 | C[C@@H]1[C@@H](CC(=O)O)c2cc(OCCc3ccccc3)ccc2N1C(=O)c1ccc(Cl)cc1 | 2.05 mM | 2.1% | 
1.74 | C[C@@H]1[C@@H](CC(=O)O)c2cc(OCc3ccccc3)ccc2N1C(=O)c1ccc(F)cc1 | 2.24 mM | 11.6% | 
1.81 | C[C@@H]1[C@@H](CC(=O)O)c2cc(OCCCCc3ccccc3)ccc2N1C(=O)c1ccc(Cl)cc1 | 1.98 mM | -1.2% | 
1.66 | CC(Oc1ccc2c(c1)[C@H](CC(=O)O)[C@@H](C)N2C(=O)c1ccc(Cl)cc1)c1ccccc1 (stereo partly drawn) | 2.2 mM | 9.8% | 
3.51 | C[C@@H]1[C@@H](CC(=O)O)c2cc(OCc3ccccc3)ccc2N1C(=O)c1ccc(Cl)cc1 | 2.4 mM | 20% | 
1.62 | C[C@@H]1[C@@H](CC(=O)O)c2cc(OCc3cccnc3)ccc2N1C(=O)c1ccc(Cl)cc1 | 1.87 mM | -6.7% | 
1.72 | C[C@H]1[C@@H](CC(=O)O)c2cc(OCc3ccccc3)ccc2N1C(=O)c1ccc(Cl)cc1 | 2.01 mM | 0.6% | 

— ChEMBL document CHEMBL3400043, “Design, synthesis and biological evaluation of GY3-based derivatives for anti-type 2 diabetes activity” (Bioorg Med Chem Lett, 2015)
